Earlier results on three compounds are cited in article PMC8309005, “Novel Non-Congeneric Derivatives of the Choline Kinase Alpha Inhibitor ICL-CCIC-0019” (Pharmaceutics, 2021).

Structures are written as SMILES. Some results are limits rather than exact numbers.

The test system of one data set is CHKA. Also noted: method as in ref 18, 25 (HC-3), 20, 21 (MN58B), 23 (RSM-932A). The note with it: CHKA inhibitors of Figure 1; 25 (HC-3), 20, 21 (MN58B), 23 (RSM-932A); cited from earlier work.
The test system of the next data set is SKBR3. Also noted: method as in PMID 22278967, PMID 9393874. The note with it: cited from earlier work.
A further data set concerns NIH3T3. Also noted: method as in PMID 22278967, PMID 9393874. As to conditions: cited from earlier work.
Another data set relates to HepG2. Also noted: method as in PMID 25487918. The note with it: cited from earlier work.
For a further data set, the system named is HeLa. Also noted: method as in ref 20, 21 (MN58B), 23 (RSM-932A). The note with it: 21 (MN58B), 23 (RSM-932A); cited from earlier work.
A further data set has as its system HT-29. Also noted: method as in ref 20, 21 (MN58B), 23 (RSM-932A). The note with it: 21 (MN58B), 23 (RSM-932A); cited from earlier work.
A further data set relates to A431. Also noted: method as in PMID 12678804, PMID 10397253. The note with it: cited from earlier work.
Another data set has as its system MCF-7. Also noted: method as in PMID 12678804, PMID 10397253. As to conditions: cited from earlier work.

As to `C[N+]1(C)CCOC(O)(c2ccc(-c3ccc(C4(O)C[N+](C)(C)CCO4)cc3)cc2)C1` (stereo not drawn) [HC-3, Hemicholinium-3], the IC50 in the data set on CHKA was 950 nM. The GI50 is over 500000 nM in the data set on SKBR3 and 600000 nM with NIH3T3.
Regarding `C/[N+](c1ccc(Cl)cc1)=c1\ccn(Cc2ccc(-c3ccc(Cn4cc/c(=[N+](/C)c5ccc(Cl)cc5)c5ccccc54)cc3)cc2)c2ccccc12` [RSM-932A], the results for the GI50 in the data set on HepG2, in the data set with HeLa and in the data set on HT-29 were 1300 nM, 1000 nM and 1300 nM, respectively. For the same compound, in the data set on CHKA, the concentration for half-maximal inhibition (IC50) is 1000 nM.
Consider `CN(C)c1cc[n+](Cc2ccc(CCCCc3ccc(C[n+]4ccc(N(C)C)cc4)cc3)cc2)cc1` [MN58B], for which the IC50 in the data set on CHKA was 1400 nM. Moreover, the GI50 in the data set on A431 is 2100 nM; in the data set on MCF-7, 600 nM; in the data set on HeLa it was 1200 nM; in the data set on HT-29, 1400 nM.

By IC50 is commonly meant the point on the concentration scale where inhibition reaches its midpoint. What is called GI50 is the concentration giving 50% growth inhibition.
